Values of other authors in patent publication US20040219200A1, “Topical patch preparation containing a delayed-type hypersensitivity inducer and methods for using the same” (priority 2001, published 2004).

Conditions: research conducted in the 1950s in the US

In the case of O=[N+]([O-])c1ccc(Cl)c([N+](=O)[O-])c1 [DNCB, 1-chloro-2,4-dinitrobenzene], the Carcinogenicity is given as “not carcinogenic”.
